# Reference: patent publication US4681890A, “3,4-dihydrobenzopyran compounds and pharmaceutical composition containing the same” (Kuraray Co., Ltd., priority 1984, dated 1987)
# Assays:
# [1] = system: Total cholesterol in serum (hypercholesterolemic mice); experiment: Blood cholesterol lowering activity (total serum cholesterol in mice given a lipid emulsion); format: in vivo, dd-Male mice; details: for Serum cholesterol value: p.o., 17 hours after second administration
# Description: dd-Male mice weighing about 25 g (one group: 10 mice) were allowed to fast for 12 hours, and thereto was orally administered a lipid emulsion (olive oil 32.7%, cholesterol 2.5%, sodium cholate 1.8%, sucrose 41.9%, and water 21.1%) in a dose of 25.5 ml/kg. A suspension of a test compound in gum arabic was orally administered to the mice twice, i.e. immediately after and […] after the administration of the lipid emulsion. 17 hours after the second administration of test compound, blood was collected from descending abdominal aorta under ether anesthesia. Total cholesterol in serum was measured by COD-p-chlorophenol colorimetry. As a reference compound, there was used Nicomol (chemical name: 2,2,6,6-tetrakis(nicotinoyloxymethyl)cyclohexanol) which is commercially available anticholesteremic agent.
# Serum cholesterol values at 17 hours after the second administration of test compound were compared with the serum cholesterol values in normal mice and hypercholesterolemic mice.
# Acute toxicity (LD50) = details: mouse, in vivo; mice, oral administration
# Description: The compounds of this invention show a low toxicity. For instance, Compound 1 and Compound 2 have LD50 of more than 5,000 mg/kg in mice (by oral administration).
# [2] = system: glutamic oxaloacetic transaminase (GOT) in serum, CCl4-administered mice; experiment: Activity against carbon tetrachloride-induced hepatic disease (serum GOT); format: in vivo, dd male mice
# Description: (§1) To dd male mice weighing 18-20 g (one group: 10 mice) was orally administered a suspension of a test compound in gum arabic twice or three times per day. On the third day, 1% carbon tetrachloride (v/v % in olive oil) was subcutaneously injected at the back of the mice in a dose of 2 ml/kg one hour after the last administration of test compound. 19 hours after the injection of CCl4, a suspendion of a test compound in gum arabic was orally administerd. After one hour, the mice were subjected to laparotomy under ether anesthesia and blood was collected from the descending abdominal aorta. The blood thus collected was centrifuged at 3,000 r.p.m. for 15 minutes. The enzymatic activities of glutamic oxaloacetic transaminase (GOT) and glutamic pyruvic transaminase (GPT) in serum were measured with S.TA-Test Wako (manufactured by Wako Pure Chemical Industries, Ltd., Japan).
# (§2) The activities of GOT and GPT in serum of the mice which were administered test compounds were compared with the GOT and GPT activities in serum of normal mice and 1% CCl4 (v/v % in olive oil)-administered mice.
# [3] = system: glutamic pyruvic transaminase (GPT) in serum, CCl4-administered mice; experiment: Activity against carbon tetrachloride-induced hepatic disease (serum GPT); format: in vivo, dd male mice
# Description: as §1, §2
# [4] = system: ornithine carbamyl transferase (OCT) in serum, ethanol-administered mice; experiment: Activity against alcoholic hepatic disease (serum OCT activity); format: in vivo, dd-Male mice
# Description: dd-Male mice (4 weeks age, weighing about 15 g, one group: 10 mice) were fed with a hyperlipid feed [composition: cholesterol 1.0%, sodium cholate 0.5%, butter 5.0%, sucrose 30.0%, casein 10.0%, and M powder feed (manufactured by Oriental Yeast Co., Ltd., Japan) 53.5%] for 4 weeks. During the feeding, a suspension of a test compound in gum arabic and a 20% aqueous ethanol (15 ml/kg) were orally administered twice a day (morning and evening). After 4 weeks, mice were subjected to laparotomy under ether anesthesia, and blood was collected from the descending abdominal aorta. The blood thus collected was centrifuged at 3,000 r.p.m. for 15 minutes, and the enzymatic activity of ornithine carbamyl transferase (OCT) was measured with OCT-Test Wako (manufactured by Wako Pure Chemical Industries, Ltd., Japan).
# The OCT activity in serum of mice which were administered test compounds was compared with the OCT activity in serum of normal mice and in control mice which were administered only 20% aqueous ethanol.
# [5] = system: blood cholesterol concentration; details: known agents, background; cited from earlier work
smiles,measurement,setting,value
"Cc1c(C)c2c(c(C)c1O)CCC(C)(CCOC(=O)c1cccnc1)O2 (centres unmarked) [Compound 1, 3,4-dihydro-2-nicotinoyloxyethyl-2,5,7,8-tetramethyl-2H-benzopyran-6-ol]",Serum cholesterol value,"[1]; Table 1, 355 mg/kg, normal 98.6 ± 10.8, hypercholesterolemic 172.2 ± 8.6",130.7 ± 11.3 mg/dL
same,LD50,Acute toxicity (LD50),> 5000 mg/kg
"Cc1c(C)c2c(c(C)c1OC(=O)c1cccnc1)CCC(C)(CCOC(=O)c1cccnc1)O2 (centres unmarked) [Compound 2, 3,4-dihydro-2-nicotinoyloxyethyl-2,5,7,8-tetramethyl-2H-benzopyran-6-yl nicotinate]",Serum cholesterol value,"[1]; Table 2, 300 mg/kg, normal 101.0 ± 5.8, hypercholesterolemic 194.3 ± 9.5",139.6 ± 9.3 mg/dL
same,GOT activity (average),"[2]; Table 6, 300 mg/kg, p.o., normal 87.9 ± 5.3, CCl4-administered 914.3 ± 195.1",582.9 ± 59.8
same,GPT activity (average),"[3]; Table 6, 300 mg/kg, p.o., normal 74.0 ± 16.3, CCl4-administered 1251.4 ± 285.4",765.7 ± 84.4
same,LD50,Acute toxicity (LD50),> 5000 mg/kg
same,OCT activity unit (mean ± S.E.),"[4]; Table 5, 300 mg/kg, p.o., twice a day, 4 weeks, normal 5.1 ± 3.2, ethanol-administered 122.5 ± 17.0",79.6 ± 12.2 unit
Cc1c(C)c2c(c(C)c1OC(=O)c1cccnc1)CCC(C)(CCO)O2 (centres unmarked) [Compound 3],Serum cholesterol value,"[1]; Table 4, 355 mg/kg, normal 111.3 ± 8.6, hypercholesterolemic 165.0 ± 13.4",144.0 ± 10.5 mg/dL
Cc1c(C)c2c(c(C)c1O)CCC(C)(COC(=O)c1cccnc1)O2 (centres unmarked) [Compound 4],Serum cholesterol value,"[1]; Table 1, 341 mg/kg, normal 98.6 ± 10.8, hypercholesterolemic 172.2 ± 8.6",159.4 ± 13.4 mg/dL
"Cc1c(C)c2c(c(C)c1OC(=O)c1cccnc1)CCC(C)(COC(=O)c1cccnc1)O2 (centres unmarked) [Compound 5, 3,4-dihydro-2-nicotinoyloxymethyl-2,5,7,8-tetramethyl-2H-benzopyran-6-yl nicotinate]",Serum cholesterol value,"[1]; Table 1, 452 mg/kg, normal 98.6 ± 10.8, hypercholesterolemic 172.2 ± 8.6",127.9 ± 14.2 mg/dL
same,cholesterol lowering activity compared with Nicomol,[1]; relative to Nicomol,about two times higher cholesterol lowering activity than Nicomol
same,inhibition of increase of GOT activity induced by CCl4,[2]; in words,excellent inhibition of increase of GOT and GPT activities induced by CCl4 in a similar degree to that of Compound 2
same,inhibition of increase of GPT activity induced by CCl4,[3]; in words,excellent inhibition of increase of GOT and GPT activities induced by CCl4 in a similar degree to that of Compound 2
same,inhibition of increase of OCT activity induced by alcohol,[4]; in words,excellent inhibition of increase of OCT activity induced by alcohol in a similar degree to that of Compound 2
"Cc1c(C)c2c(c(C)c1OC(=O)c1cccnc1)CCC(C)(CCCOC(=O)c1cccnc1)O2 (centres unmarked) [Compound 6, 3,4-dihydro-2-nicotinoyloxypropyl-2,5,7,8-tetramethyl-2H-benzopyran-6-yl nicotinate]",Serum cholesterol value,"[1]; Table 1, 474 mg/kg, normal 98.6 ± 10.8, hypercholesterolemic 172.2 ± 8.6",123.8 ± 13.8 mg/dL
Cc1c(C)c2c(c(C)c1OC(=O)c1cccnc1)CCC(C)(CC(COC(=O)c1cccnc1)OC(=O)c1cccnc1)O2 (centres unmarked) [Compound 7],Serum cholesterol value,"[1]; Table 3, 571 mg/kg, normal 109.1 ± 9.3, hypercholesterolemic 164.0 ± 12.8",143.6 ± 10.8 mg/dL
"O=C(OCC1(COC(=O)c2cccnc2)CCCC(COC(=O)c2cccnc2)(COC(=O)c2cccnc2)C1O)c1cccnc1 [Nicomol, 2,2,6,6-tetrakis(nicotinoyloxymethyl)cyclohexanol, reference compound]",Serum cholesterol value,"[1]; Table 1, 640 mg/kg, normal 98.6 ± 10.8, hypercholesterolemic 172.2 ± 8.6",146.1 ± 14.7 mg/dL
same,Serum cholesterol value,"[1]; Table 2, 640 mg/kg, normal 101.0 ± 5.8, hypercholesterolemic 194.3 ± 9.5",139.4 ± 4.4 mg/dL
same,Serum cholesterol value,"[1]; Table 3, 640 mg/kg, normal 109.1 ± 9.3, hypercholesterolemic 164.0 ± 12.8",138.3 ± 12.5 mg/dL
same,Serum cholesterol value,"[1]; Table 4, 640 mg/kg, normal 111.3 ± 8.6, hypercholesterolemic 165.0 ± 13.4",142.7 ± 11.5 mg/dL
same,blood cholesterol concentration lowering,[5],not necessarily sufficient for lowering blood cholesterol
O=C(O)c1cccnc1 [nicotinic acid],blood cholesterol concentration lowering,[5],"temporarily lowered, but the lowered concentration is not sustained"
O=C(OCC(COC(=O)c1cccnc1)(COC(=O)c1cccnc1)COC(=O)c1cccnc1)c1cccnc1 [pentaerythritol tetranicotinate],blood cholesterol concentration lowering,[5],not necessarily sufficient for lowering blood cholesterol
